According to patent US7045532B2 (Millennium Pharmaceuticals, Inc., priority 1999, dated 2006):

Key:
Carboxypeptidase A = molecular target: T1, Carboxypeptidase A (Bos taurus, UniProt P00730); test: Carboxypeptidase A activity assay; type: biochemical; details: Ki class; compounds tested in 5% DMSO, 12 concentrations
T1 sequence (P00730 111-419): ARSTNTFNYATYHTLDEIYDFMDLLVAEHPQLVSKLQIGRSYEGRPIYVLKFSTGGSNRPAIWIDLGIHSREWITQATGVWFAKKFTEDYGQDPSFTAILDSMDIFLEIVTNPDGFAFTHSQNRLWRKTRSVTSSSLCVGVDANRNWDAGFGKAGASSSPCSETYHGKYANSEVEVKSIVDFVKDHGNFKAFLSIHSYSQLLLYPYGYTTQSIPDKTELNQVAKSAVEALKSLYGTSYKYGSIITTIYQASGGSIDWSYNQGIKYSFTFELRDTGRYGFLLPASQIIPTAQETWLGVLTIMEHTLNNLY
Description: Carboxypeptidase A activity was measured using a literature assay (Holmquist and Riordan, “Carboxypeptidase A,” Methods of Enzymatic Analysis (1984) p. 44–60). The assay was adapted to a 96 well format by adjusting to a 300 μL assay volume and using ultra-thin bottom plates (Costar/Corning) read at 328 nm. The assay was stopped using EDTA.
The activity of the test compounds was investigated using the procedure outlined above. The compounds were tested in 5% DMSO. Enzyme activity was measured at 12 compound concentrations. The Ki was calculated by using Ki=Kiapp/(1+[S]/Km).
To determine whether a test compound is capable of modulating carboxypeptidase A's ability to cleave a substrate the method described in Holmquist and Riordan, Carboxypeptidase A, p44–60, Peptidase and Their Inhibitors in Method of Enzymatic Analysis (1984), may be used.
The assay may be adapted to a 96 well format by adjusting to a 300 μl assay volume and using ultrathin bottom plates (Costar/Coming) read at 328 nm with a final assay volume of 300 μl. The assay may be stopped using EDTA.

ACE (Sigma, A2580) = molecular target: T2, ACE (Sigma, A2580) (Sus scrofa, UniProt F1RRW5); test: ACE enzymatic activity assay; type: biochemical, porcine; details: Ki class; compounds tested in 5% DMSO, 12 concentrations
T2 construct: ACE from porcine kidney; purchased Sigma A2580; host or cells: porcine kidney
T2 sequence (F1RRW5 34-1309): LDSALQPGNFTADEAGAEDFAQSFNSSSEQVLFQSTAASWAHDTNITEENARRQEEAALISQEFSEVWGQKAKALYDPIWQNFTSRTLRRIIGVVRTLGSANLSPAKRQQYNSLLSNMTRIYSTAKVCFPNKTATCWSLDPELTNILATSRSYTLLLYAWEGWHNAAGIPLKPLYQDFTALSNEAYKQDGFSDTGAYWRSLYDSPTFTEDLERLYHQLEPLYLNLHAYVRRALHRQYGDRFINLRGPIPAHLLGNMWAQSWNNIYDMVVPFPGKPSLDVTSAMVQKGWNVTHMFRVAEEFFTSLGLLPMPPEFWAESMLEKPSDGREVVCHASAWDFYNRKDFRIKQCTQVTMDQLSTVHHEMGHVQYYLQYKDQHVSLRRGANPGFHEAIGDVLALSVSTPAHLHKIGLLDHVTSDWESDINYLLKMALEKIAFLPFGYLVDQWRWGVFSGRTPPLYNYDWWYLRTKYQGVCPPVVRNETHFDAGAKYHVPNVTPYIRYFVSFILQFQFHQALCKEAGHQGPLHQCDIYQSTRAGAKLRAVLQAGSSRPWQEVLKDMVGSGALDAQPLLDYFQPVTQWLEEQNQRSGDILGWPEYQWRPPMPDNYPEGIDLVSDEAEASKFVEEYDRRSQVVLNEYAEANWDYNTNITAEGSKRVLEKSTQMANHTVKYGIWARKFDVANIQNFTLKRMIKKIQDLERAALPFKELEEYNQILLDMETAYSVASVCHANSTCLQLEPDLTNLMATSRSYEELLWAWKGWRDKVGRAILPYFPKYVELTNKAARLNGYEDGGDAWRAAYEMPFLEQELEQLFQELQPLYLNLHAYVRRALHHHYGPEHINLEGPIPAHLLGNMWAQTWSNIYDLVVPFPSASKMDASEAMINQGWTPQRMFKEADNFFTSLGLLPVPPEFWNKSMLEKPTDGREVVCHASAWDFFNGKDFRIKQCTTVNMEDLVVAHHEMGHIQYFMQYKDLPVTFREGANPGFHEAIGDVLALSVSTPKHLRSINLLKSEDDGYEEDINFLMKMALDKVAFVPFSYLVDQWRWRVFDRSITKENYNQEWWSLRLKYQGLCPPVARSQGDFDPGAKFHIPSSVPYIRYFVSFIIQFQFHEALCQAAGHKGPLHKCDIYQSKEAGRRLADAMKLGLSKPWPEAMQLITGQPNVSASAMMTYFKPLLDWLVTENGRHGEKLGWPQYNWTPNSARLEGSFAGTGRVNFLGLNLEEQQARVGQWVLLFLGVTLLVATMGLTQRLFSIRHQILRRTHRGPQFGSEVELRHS
Description: ACE (Sigma, A2580) enzymatic activity was assayed in microtiter plates using the following protocol. ACE assay buffer was made from 50 mM HEPES (Sigma), 300 mM sodium chloride (Sigma), and 0.01% Brij-35 (Pierce Chemical Co) at pH 7.5.
Reactions were mixed and incubated at 25° C. Enzymatic cleavage of the substrate is marked by a fluorescence change (excitation 330 nm, emission 415 nm).
The activity of the test compounds was investigated using the procedure outlined above. The compounds were tested in 5% DMSO. Enzyme activity was measured at 12 compound concentrations. […]. […]

ACE-2 = molecular target: T3, ACE-2 (Homo sapiens, UniProt Q9BYF1); test: ACE-2 Competitive Substrate Assay (ACS Assay); type: biochemical; details: Ki class; compounds tested in 5% DMSO, 12 concentrations; read-out: Human ACE-2 Activity
T3 construct: a stop codon inserted after the serine immediately preceding the transmembrane domain; made in house; host or cells: CHO K1 cells (transient transfection, purified from conditioned medium)
T3 sequence (Q9BYF1 18-740 limits assumed): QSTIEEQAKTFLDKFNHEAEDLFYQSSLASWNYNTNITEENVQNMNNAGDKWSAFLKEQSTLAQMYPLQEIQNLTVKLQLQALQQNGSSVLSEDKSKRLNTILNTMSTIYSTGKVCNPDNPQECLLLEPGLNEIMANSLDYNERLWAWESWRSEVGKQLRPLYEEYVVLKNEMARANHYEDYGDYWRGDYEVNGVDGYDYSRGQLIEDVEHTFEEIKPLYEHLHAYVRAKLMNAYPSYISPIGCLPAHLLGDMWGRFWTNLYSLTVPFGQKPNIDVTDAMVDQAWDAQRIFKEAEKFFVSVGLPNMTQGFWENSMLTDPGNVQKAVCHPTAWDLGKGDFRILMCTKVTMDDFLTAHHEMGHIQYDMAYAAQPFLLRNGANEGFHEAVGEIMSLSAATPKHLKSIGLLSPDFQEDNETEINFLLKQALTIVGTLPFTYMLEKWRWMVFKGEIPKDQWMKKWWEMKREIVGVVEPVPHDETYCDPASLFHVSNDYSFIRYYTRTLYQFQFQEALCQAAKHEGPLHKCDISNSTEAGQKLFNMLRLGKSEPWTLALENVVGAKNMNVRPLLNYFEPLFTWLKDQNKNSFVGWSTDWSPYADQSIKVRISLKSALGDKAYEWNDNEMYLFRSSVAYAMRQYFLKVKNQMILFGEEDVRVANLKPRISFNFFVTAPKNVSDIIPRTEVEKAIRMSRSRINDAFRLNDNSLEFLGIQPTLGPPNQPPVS

Row | Molecule | Ki (Carboxypeptidase A) [µM] | Ki (ACE (Sigma, A2580)) [µM] | Ki (ACE-2) [nM]
1 | 2-[2-(3-Benzyl-3H-imidazol-4-yl)-1-carboxy-ethylamino]-butync acid [GG] | > 50 | > 50 | –
2 | 2-[2-(3-Benzyl-3H-imidazol-4-yl)-1-carboxy-ethylamino]-butync acid [GH] | > 50 | > 50 | –
3 | 4-Methyl-2-(3-phenethyl-ureido)-pentanoic acidmethyl ester [DG] | > 50 | > 50 | –
4 | CC(=O)N(C(CCc1ccccc1)C(=O)O)[C@@H](CC(C)C)C(=O)O (single isomer, unassigned) [AU, 2-[Acetyl-(1-carboxy-3-phenyl-propyl)-amino]-4-methyl-pentanoic acid] | > 50 | > 50 | –
5 | CC(C)CC(N[C@H](Cc1c[nH]cn1)C(=O)O)C(=O)O (single isomer, unassigned) [BJ, 2-[1-Carboxy-2-(1H-imidazol-4-yl)-ethylamino]4-methyl-pentanoic acid] | > 50 | 10 to 50 | –
6 | CC(C)CC(N[C@@H](Cc1cn(Cc2ccccc2)cn1)C(=O)O)C(=O)O (single isomer, unassigned) [DM, 2-[2-(1-Benzyl-1H-imidazol-4-yl)-1-carboxy-ethylamino]-4-methyl-pentanoic acid] | > 50 | > 50 | –
7 | CCCCC(CC(=O)O)N[C@@H](Cc1c[nH]cn1)C(=O)O (single isomer, unassigned) [ET, 3-[1-Carboxy-2-(1H-imidazol-4-yl)-ethylamino]heptanoic acid] | > 50 | > 50 | –
8 | CC(C)CC(N[C@@H](Cc1c[nH]cn1)C(N)=O)C(=O)O (single isomer, unassigned) [EW, 2-[1-Carbamoyl-2-(1H-imidazol-4-yl)-ethylamino]4-methyl-pentanoic acid] | > 50 | > 50 | –
9 | CC(C)CC(N[C@@H](Cc1c[nH]cn1)C(=O)Nc1ccc([N+](=O)[O-])cc1)C(=O)O (single isomer, unassigned) [EY, 2-[2-(1H-Imidazol-4-yl)-1-(4-nitro-phenylcarbamoyl)ethylamino]-4-methyl-pentanoic acid] | > 50 | > 50 | –
10 | CC(C)CC(N[C@@H](Cc1cncn1Cc1ccccc1)C(=O)O)C(=O)O (single isomer, unassigned) [FA, 2-[2-(3-Benzyl-3H-imidazol-4-yl)-1-carboxy-ethylamino]-4-methyl-pentanoic acid] | > 50 | > 50 | –
11 | CC(C)CC(N[C@@H](CNc1ccccc1)C(=O)O)C(=O)O (single isomer, unassigned) [FJ, 2-(1-Carboxy-2-phenylamino-ethylamino)-4-methyl-pentanoic acid] | > 50 | > 50 | –
12 | COc1ccc(CCNC(=O)[C@H](Cc2cnc[nH]2)NC(CC(C)C)C(=O)O)cc1 (single isomer, unassigned) [FL, 2-{2-(3H-Imidazol-4-yl)-1-[2-(4-methoxy-phenyl)-ethylcarbamoyl]-ethylamino}4-methyl-pentanoic acid] | > 50 | > 50 | –
13 | CC(C)CC(N[C@@H](Cc1cncn1COCc1ccccc1)C(=O)NCCc1ccccc1)C(=O)O (single isomer, unassigned) [FN, 2-[2-(3-Benzyloxymethyl-3H-imidazol-4-yl)-1-phenethylcarbamoyl-ethylamino]-4-methyl-pentanoic acid] | > 50 | > 50 | –
14 | CC(C)CC(N[C@H](CO)Cc1c[nH]cn1)C(=O)O (single isomer, unassigned) [FP, 2-[1-Hydroxymethyl-2-(1H-imidazol-4-yl)-ethylamino)4-methyl-pentanoic acid] | > 50 | > 50 | –
15 | CC(C)CC(N[C@@H](Cc1cnc[nH]1)C(=O)NCCc1ccccc1)C(=O)O (single isomer, unassigned) [FX, 2-[2-(3H-Imidazol-4-yl)-1-phenethylcarbamoyl-ethylamino]-4-methyl-pentanoic acid] | > 50 | > 50 | –
16 | CC(C)CC(N[C@@H](Cc1cncn1Cc1cccc2ccccc12)C(=O)O)C(=O)O (single isomer, unassigned) [GL, 2-[1-Carboxy-2-(3-naphthalen-1-ylmethyl-3Himidazol-4-yl)-ethylamino]4-methyl-pentanoic acid] | 10 to 50 | 10 to 50 | –
17 | CC(C)CC(N[C@@H](Cc1cncn1Cc1ccc(Cl)cc1)C(=O)O)C(=O)O (single isomer, unassigned) [GN, 2-[1-Carboxy-2-[3-(4-chloro-benzyl)-3H-imidazol-4-yl]-ethylamino]4-methyl-pentanoic acid] | > 50 | > 50 | –
18 | CC(C)CC(N[C@@H](Cc1cncn1Cc1ccc(C(=O)O)cc1)C(=O)O)C(=O)O (single isomer, unassigned) [GP, 4-[5-[2-Carboxy-2-(1-carboxy-3-methyl-butylamino)-ethyl]-imidazol-1-ylmethyl]-benzoic acid] | > 50 | > 50 | –
19 | CC(C)C[C@H](NC(CCc1ccccc1)C(=O)O)C(=O)O (some centres unmarked) [C, 2-(1-Carboxy-3-phenyl-propylamino)-4-methyl-pentanoic acid] | – | > 50 | > 500
20 | CC(C)CC(N[C@H](Cc1cn(Cc2ccccc2)cn1)C(=O)O)C(=O)O (some centres unmarked) [CX, 2-[2-(1-Benzyl-1H-imidazol-4-yl)-1-carboxy-ethylamino]-4-methyl-pentanoic acid] | > 50 | 10 to 50 | –
21 | CC(C)C[C@H](N[C@@H](CCc1ccccc1)C(=O)O)C(=O)O [D, 2-(1-Carboxy-3-phenyl-propylamino)-4-methyl-pentanoic acid] | – | > 50 | > 500
22 | O=C(O)C(CCc1ccccc1)N[C@@H](Cc1c[nH]cn1)C(=O)O (some centres unmarked) [ER, 2-[1-Carboxy-2-(1H-imidazol-4-yl)-ethylamino]4-phenyl-butync acid] | > 50 | > 50 | –
23 | CC(C)CC(N[C@@H](Cc1cn(Cc2ccc(Cl)cc2)cn1)C(=O)O)C(=O)O (some centres unmarked) [EU, 2-[1-Carboxy-2-[1-(4-chloro-benzyl)-1H-imidazol-4-yl]-ethylamino)4-methyl-pentanoic acid] | 10 to 50 | > 50 | –
24 | CC(CS)C(=O)O (centres unmarked) [G, 3-Mercapto-2-methyl-propionic acid] | – | > 50 | > 500
25 | CC(C)CC(NC(Cc1cncn1Cc1cccc([N+](=O)[O-])c1)C(=O)O)C(=O)O (centres unmarked) [GA] | 10 to 50 | > 50 | –
